Measurements as given in patent US6340686B1, “Thienopyrimidine compounds, their production and use” (Takeda Chemical Industries, Ltd., priority 1999, dated 2002).

Assays:
[1] = test system: plasma LH; test: Suppression of plasma LH in castrated monkeys; assay type: in vivo, cynomolgus monkeys (Macaca fascicularis); details: castrated male cynomolgus monkeys
Method: The Example compound No. 2 was orally administered to castrated male cynomolgus monkeys (Macaca fascicularis), and plasma LH was quantified. The male cynomolgus monkeys, used at 4 years 9 months to 6 years 3 months of age at time of experimentation, had been castrated more than 3 months prior to the examination. Test animals [n=3] were given 30 mg/kg (3 ml/kg) of the compound suspended in 0.5% methyl cellulose at a final concentration of 1% by oral administration, and control animals [n=2] were given 3 ml/kg of the 0.5% methyl cellulose dispersant alone by oral administration. At 24 hours and immediately before administration and at 2, 4, 6, 8, 24, and 48 hours after administration, blood was collected for heparinized plasma samples via the femoral vein and immediately stored under freezing conditions.
Plasma LH concentrations were determined by a bioassay using mouse testicular cells. The testicular cells were collected from male BALB/c mice (8 to 9 weeks of age) and washed three times with 1 ml of Dulbecco's modified Eagle medium. (DMEM-H) containing 20 mM HEPES and 0.2% BSA per testis. After incubation at 37° C. for 1 hour, the cells were passed through a nylon mesh filter (70 μm) and dispensed to test tubes at 8×10^5 cells/tube. After the cells were washed twice with 0.4 ml of DMEM-H, 0.4 ml of a DMEM-H solution containing either equine LH (Sigma Company), as the standard LH, or monkey plasma, previously diluted up to 300 fold, as the test sample, was added, followed by a reaction at 37° C. for 2 hours. The testosterone concentration in the culture supernatant was determined by a radioimmunoassay (CIS Diagnostics Company), and the LH concentration in the test monkey plasma was calculated from the standard curve for the standard equine LH.
The results are given together in FIG. 1. […]

[2] = molecular target: T1, GnRH receptors (rat pituitary anterior lobe membrane fraction) (Rattus norvegicus, UniProt P30969); test: 125I-leuprorelin binding inhibition, rat pituitary anterior lobe membrane fraction
T1 construct: Anterior lobes of the pituitary glands were isolated from forty Wistar rats; from tissue; host or cells: anterior lobes of pituitary glands of male Wistar rats
T1 sequence (P30969 1-327): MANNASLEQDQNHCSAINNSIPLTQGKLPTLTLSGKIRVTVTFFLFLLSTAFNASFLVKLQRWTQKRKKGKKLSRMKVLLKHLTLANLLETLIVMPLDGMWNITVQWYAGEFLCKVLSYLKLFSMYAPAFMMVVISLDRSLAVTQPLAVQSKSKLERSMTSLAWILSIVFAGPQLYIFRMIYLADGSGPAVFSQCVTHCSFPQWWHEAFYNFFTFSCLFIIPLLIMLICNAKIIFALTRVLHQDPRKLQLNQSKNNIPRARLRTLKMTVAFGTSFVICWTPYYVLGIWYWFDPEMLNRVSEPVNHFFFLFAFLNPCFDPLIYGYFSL
Method: (1) Preparation of ^125I-leuprorelin To a tube containing 10 μl of a 3×10^−4M aqueous solution of leuprorelin and 10 μl of 0.01 mg/ml lactoperoxidase, 10 μl (37MBq) of a solution of Na^125I was added. After stirring, 10 μl of 0.001% H2O2 was added, and a reaction was carried out at room temperature for 20 minutes. By adding 700 μl of a 0.05% TFA (trifluoroacetic acid) solution, the reaction was stopped, followed by purification by reversed-phase HPLC. The HPLC conditions used are shown below. ^125I-leuprorelin was eluted at a retention time of 26 to 27 minutes. […] To determine maximum binding quantity, a reaction mixture of 2 μl of 60% DMSO and 10 μl of 38 nM ^125I-leuprorelin was prepared. […] After this filtration, the radioactivity of ^125I-leuprorelin remaining on the filter paper was measured with a γ-counter. The expression (TB-SB)/(TB-NSB)×100 (where SB=radioactivity with the compound added, TB=maximum bound radioactivity, NSB=nonspecifically bound radioactivity) was calculated to find the binding inhibition rate (%) of each test compound. […]

[3] = molecular target: T2, human GnRH receptor (Homo sapiens, UniProt P30968); test: 125I-leuprorelin binding inhibition, CHO cell membrane fraction containing human GnRH receptor; details: 25° C. for 60 minutes, Hill plot
T2 construct: expressed in transfected cells; host or cells: CHO (Chinese hamster ovary) cells
T2 sequence (P30968 1-328): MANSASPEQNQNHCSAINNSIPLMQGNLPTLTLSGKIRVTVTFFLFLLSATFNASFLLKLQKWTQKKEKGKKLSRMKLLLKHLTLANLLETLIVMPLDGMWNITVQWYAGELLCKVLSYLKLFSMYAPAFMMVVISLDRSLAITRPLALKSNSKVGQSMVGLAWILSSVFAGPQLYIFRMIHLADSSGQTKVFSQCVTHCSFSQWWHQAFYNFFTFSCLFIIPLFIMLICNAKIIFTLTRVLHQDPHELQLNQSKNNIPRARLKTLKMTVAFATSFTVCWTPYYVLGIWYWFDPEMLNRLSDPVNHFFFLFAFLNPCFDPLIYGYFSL
Method: To the cell pellet, 10 ml of a cell homogenate buffer (10 mM NaHCO3, 5 mM EDTA, pH 7.5) was added, followed by homogenization using the Polytron homogenizer. […] This precipitate was suspended in 2 ml of an assay buffer and centrifuged at 100,000×g for 1 hour. The membrane fraction recovered as a precipitate was again suspended in 20 ml of the assay buffer, dispensed, and stored at −80° C. before use upon thawing. […] To determine maximum binding quantity, a reaction mixture of 2 μl of 60% DMSO and 10 μl of 38 nM ^125I-leuprorelin was prepared. […] Where the membrane fraction of the CHO with human GnRH receptors expressed was used, the reaction was carried out at 25° C. for 60 minutes. After each reaction, the reaction mixture was aspirated and filtered through a polyethyleneimine-treated Whatman glass filter (GF-F). After this filtration, the radioactivity of ^125I-leuprorelin remaining on the filter paper was measured with a γ-counter. The expression (TB-SB)/(TB-NSB)×100 (where SB=radioactivity with the compound added, TB=maximum bound radioactivity, NSB=nonspecifically bound radioactivity) was calculated to find the binding inhibition rate (%) of each test compound. Furthermore, the inhibition rate was determined by varying the concentration of the test substance and the 50% inhibitory concentration (IC50 value) of the compound was calculated from Hill plot.

For `CONC(=O)Nc1ccc(-c2sc3c(c2CN(C)Cc2ccccc2)c(=O)n(-c2ccccc2)c(=O)n3Cc2c(F)cccc2F)cc1.Cl` [Ex. Compd. No. 2, 5-(N-Benzyl-N-methylaminomethyl)-1-(2,6-difluorobenzyl)-6-[4-(3-methoxyureido)phenyl]-3-phenylthieno[2,3-d]pyrimidine-2,4(1H,3H)-dione hydrochloride], the “plasma LH concentration, percentage of the baseline LH concentration immediately before administration” value ([1]; 30 mg/kg oral in 0.5% methyl cellulose, by 24 hours after administration) was no more than 20%, the “plasma LH concentration at 48 hours after administration” value ([1]; 30 mg/kg oral, 48 hours after administration) was “re-elevation of the plasma LH concentration was noted” and the “effect on blood LH concentration” value ([1]; administered orally, 30 mg/kg) was “significant depressive effect on blood LH concentration”.

`CONC(=O)Nc1ccc(-c2sc3c(c2CN2Cc4ccccc4C2)c(=O)n(-c2ccccc2)c(=O)n3Cc2c(F)cccc2F)cc1` [Ex. Compd. No. 4-2] showed an IC50 ([2]; 125I-leuprorelin binding, calculated from Hill plot) of 0.5 µM, an inhibition at 1 µM ([2]; read-out: binding inhibition rate (%) Rat (1 μM), 1 μM compound, 125I-leuprorelin, 4° C. for 90 minutes) of 64% and an IC50 [3] of 0.0002 µM.

For `CN(Cc1ccccc1)Cc1c(-c2ccc(NC(=O)NO)cc2)sc2c1c(=O)n(-c1ccccc1)c(=O)n2Cc1c(F)cccc1F` [Example 5, 5-(N-Benzyl-N-methylaminomethyl)-1-(2,6-difluorobenzyl)-6-[4-(3-hydroxyureido)phenyl]-3-phenylthieno[2,3-d]pyrimidine-2,4(1H,3H)-dione], the melting point was 164 to 165 °C.

Compound `CN(Cc1ccccc1)Cc1c(-c2ccc(NC(=O)NCCO)cc2)sc2c1c(=O)n(-c1ccccc1)c(=O)n2Cc1c(F)cccc1F` [Example 7, 5-(N-Benzyl-N-methylaminomethyl)-1-(2,6-difluorobenzyl)-6-[4-[3-(2-hydroxyethyl)ureido]phenyl]-3-phenylthieno[2,3-d]pyrimidine-2,4(1H,3H)-dione] has a melting point of 220 to 222 °C.
